The IC50 is the point on the concentration scale where inhibition reaches its midpoint.

For test [1], the target named is T1, Peroxisome proliferator-activated receptor delta (Homo sapiens, UniProt Q03181).
T1 sequence (Q03181 whole entry): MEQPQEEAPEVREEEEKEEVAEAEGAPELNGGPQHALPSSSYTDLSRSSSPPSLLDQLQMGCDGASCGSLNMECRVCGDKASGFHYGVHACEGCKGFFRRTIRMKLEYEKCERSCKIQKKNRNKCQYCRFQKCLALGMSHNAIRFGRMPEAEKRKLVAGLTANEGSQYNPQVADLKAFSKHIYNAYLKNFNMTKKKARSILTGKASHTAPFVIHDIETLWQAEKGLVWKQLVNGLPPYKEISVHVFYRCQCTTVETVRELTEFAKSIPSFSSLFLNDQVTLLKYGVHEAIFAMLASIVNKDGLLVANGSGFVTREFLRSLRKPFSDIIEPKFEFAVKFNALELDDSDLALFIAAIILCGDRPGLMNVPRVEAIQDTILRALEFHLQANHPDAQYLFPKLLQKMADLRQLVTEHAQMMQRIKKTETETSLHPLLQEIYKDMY
Put plainly: Displacement of [3H]GW2433 from Homo sapiens (human) PPARdelta receptor by scintillation proximity assay. On the technique in general: Displacement assays read how much labelled ligand stays bound in the presence of the test substance.

Test [2] has as its target T2, Peroxisome proliferator-activated receptor alpha (Homo sapiens, UniProt Q07869).
T2 sequence (Q07869 whole entry): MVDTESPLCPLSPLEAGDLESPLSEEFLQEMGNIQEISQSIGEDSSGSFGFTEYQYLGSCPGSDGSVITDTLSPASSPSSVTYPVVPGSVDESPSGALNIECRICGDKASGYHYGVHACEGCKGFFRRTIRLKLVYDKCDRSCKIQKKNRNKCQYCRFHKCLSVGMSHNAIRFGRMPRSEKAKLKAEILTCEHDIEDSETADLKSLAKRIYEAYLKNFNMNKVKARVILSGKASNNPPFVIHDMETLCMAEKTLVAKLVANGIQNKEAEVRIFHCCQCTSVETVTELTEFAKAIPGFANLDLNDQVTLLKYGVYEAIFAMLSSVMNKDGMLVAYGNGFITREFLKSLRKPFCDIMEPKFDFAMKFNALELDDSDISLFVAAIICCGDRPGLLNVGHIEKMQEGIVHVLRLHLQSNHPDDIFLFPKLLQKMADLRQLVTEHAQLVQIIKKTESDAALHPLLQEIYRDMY
Description: Displacement of [3H]GW2331 from Homo sapiens (human) PPARalpha receptor by scintillation proximity assay.

The target of test [3] is T3, Peroxisome proliferator-activated receptor gamma (Homo sapiens, UniProt P37231).
T3 sequence (P37231 whole entry): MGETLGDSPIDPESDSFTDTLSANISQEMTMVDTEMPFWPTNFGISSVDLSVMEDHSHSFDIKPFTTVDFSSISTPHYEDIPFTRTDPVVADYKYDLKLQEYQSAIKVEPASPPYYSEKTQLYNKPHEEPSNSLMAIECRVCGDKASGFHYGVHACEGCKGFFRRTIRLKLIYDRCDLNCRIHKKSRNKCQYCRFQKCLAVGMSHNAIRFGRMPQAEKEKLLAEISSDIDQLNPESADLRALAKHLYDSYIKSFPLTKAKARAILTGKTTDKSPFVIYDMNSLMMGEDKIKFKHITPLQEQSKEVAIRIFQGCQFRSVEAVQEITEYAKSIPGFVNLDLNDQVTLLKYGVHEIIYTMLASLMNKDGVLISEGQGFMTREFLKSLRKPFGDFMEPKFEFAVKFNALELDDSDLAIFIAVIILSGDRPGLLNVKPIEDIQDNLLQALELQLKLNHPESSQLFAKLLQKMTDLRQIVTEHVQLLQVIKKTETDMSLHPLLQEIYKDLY
Put plainly: Displacement of [3H]BRL49653 from Homo sapiens (human) PPARgamma receptor by scintillation proximity assay.

Where only a bound is given, the exact number is not on record here.

In the case of `CCCCCCCCCCCCCCCCCCCC(=O)O` [ARACHIDIC ACID], the IC50 in test [1] and in test [2] was over 30 µM throughout. In the case of `CCCCC/C=C\C/C=C\C/C=C\C/C=C\CCCC(=O)O` [ARACHIDONIC ACID], the IC50 is 3.1 µM in test [1] and 1.6 µM in test [3]. Turning to `CCCCCCCCCCCCCCCCCCCCCC(=O)O` [BEHENIC ACID], the IC50 in test [1] and in test [2] was over 30 µM each time.

Turning to `CCCCCCCCCC(=O)O` [DECANOIC ACID], the IC50 is over 30 µM in test [1], 30 µM in test [3] and over 30 µM in test [2]. On to `CCCCC/C=C\C/C=C\C/C=C\CCCCCCC(=O)O` [DIHOMO-GAMMA-LINOLENIC ACID], for which the IC50 in test [1] was 4.3 µM; in test [3], 2.4 µM. As for `CCCCCCCCCCCC(=O)O` [DODECANOATE], the IC50 in test [1] and in test [2] was over 30 µM throughout. Turning to `CCCCCCCC/C=C\CCCCCCCCCCCC(=O)O` [ERUCIC ACID], the IC50 in test [1] and in test [2] was over 30 µM each time. In test [1], `CCCCC/C=C\C/C=C\C/C=C\CCCCC(=O)O` [GAMOLENIC ACID] returned an IC50 of 0.75 µM. `CC/C=C\C/C=C\C/C=C\C/C=C\C/C=C\CCCC(=O)O` [ICOSAPENT]: the IC50 in test [1] worked out at 4 µM; in test [3] it was 1.6 µM. On the same counts, the results for `CCCCC/C=C\C/C=C\CCCCCCCC(=O)O` [LINOLEIC ACID] are 10 µM and 6.2 µM.

With `CC/C=C\C/C=C\C/C=C\CCCCCCCC(=O)O` [LINOLENIC ACID], in test [1], the IC50 was 16 µM. `CCCCCCCCCCCCCC(=O)O` [MYRISTIC ACID]: the IC50 in test [3] stood at 21 µM; in test [2], 5.4 µM. On to `CCCCCCCC/C=C\CCCCCCCC(=O)O` [OLEIC ACID], for which the IC50 in test [1] came out at 5.3 µM; in test [3], 4.1 µM. In test [2], `CCCCCCCCCCCCCCCC(=O)O` [PALMITIC ACID] showed an IC50 of 1.5 µM. As for `CCCCCC/C=C\CCCCCCCC(=O)O` [PALMITOLEIC ACID], the IC50 in test [1] turned out to be 9.6 µM; in test [3], 6.4 µM.

In the case of `CCCCCCCCCCCCCCCCCC(=O)O` [STEARIC ACID], the IC50 in test [2] was 1.1 µM.

The values are drawn from ChEMBL document CHEMBL3046720, “Molecular properties of fatty acids related to PPAR binding and metabolic diseases” (Med Chem Res, 2013).
